Data published in EP0405506A1, “Tetrapeptide type-B CCK receptor ligands” (ABBOTT LABORATORIES, priority 1989, dated 1991).

How the values were obtained:
CCK receptors = biological target: T1, CCK receptors (Cavia porcellus, UniProt Q63931); assay: Radioligand binding ([125I]Bolton-Hunter CCK8) in guinea pig pancreatic membranes; conditions: displacement of [125I]BH-CCK8, pancreatic membranes, 37°C for 150 min, Hill analysis; read-out: IC₅₀ (uM) pancreas
T1 construct: Cortical and pancreatic membranes were prepared as described; from tissue; host or cells: guinea pig pancreas membranes
T1 sequence (Q63931 1-430): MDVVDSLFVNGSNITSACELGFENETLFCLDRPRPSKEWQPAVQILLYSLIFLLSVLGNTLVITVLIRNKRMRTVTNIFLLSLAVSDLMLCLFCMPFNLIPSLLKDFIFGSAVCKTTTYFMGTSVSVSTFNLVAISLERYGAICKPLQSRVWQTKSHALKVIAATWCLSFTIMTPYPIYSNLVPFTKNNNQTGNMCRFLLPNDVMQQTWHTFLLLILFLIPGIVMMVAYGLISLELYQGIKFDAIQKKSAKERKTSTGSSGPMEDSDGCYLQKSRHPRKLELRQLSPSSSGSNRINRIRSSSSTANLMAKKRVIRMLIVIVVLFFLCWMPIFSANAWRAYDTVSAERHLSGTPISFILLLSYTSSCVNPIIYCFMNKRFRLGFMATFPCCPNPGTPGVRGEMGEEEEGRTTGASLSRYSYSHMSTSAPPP
Method: EGTA, HEPES, BSA were purchased from Sigma Chemical Co. (St. Louis, MO). […] Male ginea pigs, 250 to 325 g, were obtained from Scientific Small Animal Laboratory and Farm (Arlington Heights, IL). Collangenase, code CLSPA was purchased from Worthington (Frehold, NJ).
In brief, pancreas and cortex were removed and rinsed with ice-cold saline. Visible fat and connective tissues were removed from the pancreas. Tissues were weighed and homogenized in approximately 25 mL of ice-cold 50 mM Tris-HCl buffer, pH 7.4 at 4°C with a Brinkman Polytron for 30 sec, setting 7. The homogenates were centrifuged for 10 min at 1075 x g and the pellet was discarded. The supernantants were saved and centrifuged at 38,730 x g for 20 min. The resultant pellets were rehomogenized in 25 mL of 50 mM Tris-HCl buffer with a Teflon-glass homogenizer, 5 up and down strokes. The homogenates were centrifuged again at 38,730 x g for 20 min. The pellets were then resuspended in 20 mM HEPES, containing 1 mM EGTA, 118 mM NaCl, 4.7 mM KCl, 5mM MgCl₂, 100 uM bestatin, 3 uM phosphoramidon, pH 7.4 at 22°C with a Teflon-glass homogenizer, 15 up and down strokes. The resuspension volume used for the cortex was 15 mL per g of original wet weight and 60 mL per g for pancreas.
The final BSA concentration was 0.1%. The cortical tissues were incubated at 30°C for 150 min. and pancreatic tissues were incubated at 37°C for 150 min. Incubations were terminated by filtration using Skatron Cell Harvester and SS32 microfiber filter mats. […] IC₅₀s were determined from the Hill analysis.

[1] = biological target: T2, CCK-B receptors on small cell lung cancer cell lines (Homo sapiens, UniProt P32239); assay: Measurement of [Ca++]i changes in NCI-H345 and H209 cell lines (indo-1 fluorescence); type: cell-based; conditions: read-out: Intrinsic Activity Relative to CCK-8
T2 construct: endogenous in cells; host or cells: NCI-H345 and H209 small cell lung cancer cells
T2 sequence (P32239 1-447): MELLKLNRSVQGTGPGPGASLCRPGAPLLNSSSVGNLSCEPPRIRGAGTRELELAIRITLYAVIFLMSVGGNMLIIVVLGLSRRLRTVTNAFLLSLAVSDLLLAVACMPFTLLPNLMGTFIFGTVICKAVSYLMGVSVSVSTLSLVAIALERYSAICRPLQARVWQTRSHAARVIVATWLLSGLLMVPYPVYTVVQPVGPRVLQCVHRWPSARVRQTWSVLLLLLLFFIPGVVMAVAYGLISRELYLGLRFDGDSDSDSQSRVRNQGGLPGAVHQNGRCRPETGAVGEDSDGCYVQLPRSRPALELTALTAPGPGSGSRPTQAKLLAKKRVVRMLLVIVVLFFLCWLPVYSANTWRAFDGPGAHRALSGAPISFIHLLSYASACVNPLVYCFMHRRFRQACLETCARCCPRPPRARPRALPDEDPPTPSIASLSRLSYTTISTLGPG
Method: Protocol for Measuring [Ca++]i Changes in NCI-H345 and H209 Cell Lines
Culture conditions were as described (D.G. Yoder, T.W. Moody, Peptides, 8, 103 (1987), except that the medium was modified to RPMI 1640 with 2.5% fetal bovine serum (heat inactivated), 5µg/l sodium selenite, 5 mg/l human transferrin, 5 mg/l insulin, penicillin (100 U/l) and streptomycin (100 µg/l). To measure intracellular Ca²⁺, cells were loaded with 1 µM of indo-1,AM, for 60 min at 37°C. The cells were centrifuged at 750 x g for 5 min and resuspended in 40 mL Buffer F (Dulbecco's phosphate buffered saline containing 0.1% glucose, pH 7.4). The cells were counted then twice washed by centrifugation. The final pellet was resuspended (approximately 1 x 10⁶ cells/mL) in Buffer F. The cells were thermally equilibrated in a thermostated cuvette (37°C) for 2 min prior to base-line fluorescence measurement. Fluorescence measurements were made with an SLM 8000C spectrofluorimeter equipped with magnetic microstirrer and polarizing filters. Measurements with indo-1-loaded cells were obtained at excitation wavelength of 350 nm and emission wavelength of 480 and 405 nM and the time interval for the measurements was 0.5 sec.

VTA neurons = assay: Potentiation of ethanol-induced excitation of VTA neurons in rat brain slices (extracellular recording); type: cell-based, Sprague-Dawley rats; conditions: ethanol 80 to 160 mM, agonist infused at least 10 minutes before ethanol
Method: Brain slices form Sprague-Dawley rats (100-200 gm) containing the ventral tegmental area were prepared as previously described (Brodie and Dunwiddie, Brain Research, 425, 106 (1987)). Animals used in this study were treated in strict accordance with the NIH Guide for the Care and use of Laboratory Animals. Coronal sections (400 um thick) were cut and the tissue was place directly in the recording chamber. Small platinum weights were placed on the slice to increase the stability of recordings. The slice was covered with medium and a superfusion system then maintained the flow of medium at 2 ml/min; the temperature in the recording chamber was kept at 35°C. […] The flow rate was continuously monitored with a flowmeter and adjustable valves were used to keep the rate constant. […]
Ethanol and the CCK agonist compound were added to the aCSF in the fluid delivery tubing by means of a calibrated infusion pump from stock solutions 100 to 1000 times the desired final concentrations. Final concentrations were calculated from aCSF flow rate, pump infusion rate and concentration of drug stock solution. […]
Frequency of firing was determined using a window discriminator and ratemeter, the output of which was fed to a chart recorder. […]

IC50 (CCK receptors): 3.5 µM
Emax [1]: 103%
Structure (SMILES): CCC[C@H]1CCN(C(=O)[C@@H]2Cc3c[nH]c4cccc(c34)CC(=O)N2)[C@@H]1C(=O)N[C@@H](CC(=O)O)C(=O)N[C@@H](Cc1ccccc1)C(N)=O [Example 48, Ctp-Tpp-Asp-Phe-NH₂]
effect on excitatory effect of ethanol on VTA neurons (firing rate) (VTA neurons): increases the excitatory effect of ethanol on VTA neurons
